Measurements as given in paper PMC12736255, “Reinvestigating Pyrrol-2-One-Based Compounds: From Antimicrobial Agents to Promising Antitumor Candidates” (Pharmaceuticals, 2025).

Assays:
[1] = system: UACC-62; assay: NCI-60 single-dose screen; assay type: cell-based; conditions: Homo sapiens; UACC-62, 10^–5 M; read-out: GI (%)
Outline: (§1)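 The National Cancer Institute screened these compounds at a fixed 10^−5 M in its sixty-line human tumor cell panel.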

[2] = system: HOP-92; assay: NCI-60 single-dose screen; assay type: cell-based; conditions: Homo sapiens; HOP-92, 10^–5 M; read-out: GI (%)
Outline: as §1

[3] = system: T-47D; assay: NCI-60 single-dose screen; assay type: cell-based; conditions: Homo sapiens, T47D, 10^–5 M, read-out: GI (%)
Outline: as §1

[4] = system: OVCAR-8; assay: NCI-60 single-dose screen; assay type: cell-based; conditions: Homo sapiens; OVCAR-8, 10^–5 M; read-out: GI (%)
Outline: as §1

[5] = system: IGROV1; assay: NCI-60 single-dose screen; assay type: cell-based; conditions: Homo sapiens, IGROV-1; IGROV1, 10^–5 M; read-out: GI (%)
Outline: as §1

[6] = system: HCC-2998; assay: NCI-60 single-dose screen; assay type: cell-based; conditions: Homo sapiens; HCC-2998, 10^–5 M; read-out: GI (%)
Outline: as §1

[7] = system: SR; assay: NCI-60 single-dose screen; assay type: cell-based; conditions: Homo sapiens, 10^–5 M, read-out: GI (%)
Outline: as §1

[8] = system: SW-620; assay: NCI-60 single-dose screen; assay type: cell-based; conditions: Homo sapiens; SW-620, 10^–5 M; read-out: GI (%)
Outline: as §1

[9] = system: K-562; assay: NCI-60 single-dose screen; assay type: cell-based; conditions: Homo sapiens, K562; K-562, 10^–5 M; read-out: GI (%)
Outline: as §1

[10] = system: TK-10; assay: NCI-60 single-dose screen; assay type: cell-based; conditions: Homo sapiens; TK-10, 10^–5 M; read-out: GI (%)
Outline: as §1

[11] = system: HL-60(TB); assay: NCI-60 single-dose screen; assay type: cell-based; conditions: Homo sapiens, 10^–5 M, read-out: GI (%)
Outline: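 Each compound is applied at 10^−5 M to human tumor lines of the NCI-60 panel, which spans nine cancer types including melanoma, renal, CNS and ovarian.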

[12] = system: NCI-H322M; assay: NCI-60 single-dose screen; assay type: cell-based; conditions: Homo sapiens, 10^–5 M, read-out: GI (%)
Outline: as §1

[13] = system: NCI-H460; assay: NCI-60 single-dose screen; assay type: cell-based; conditions: Homo sapiens; NCI-H460, 10^–5 M; read-out: GI (%)
Outline: as §1

[14] = system: Gram-positive and Gram-negative bacteria; parameters: method as in PMID 38398524; conditions: cited from earlier work
[15] = system: MDA-MB-468; assay: NCI-60 single-dose screen; assay type: cell-based, human; conditions: MDA-MB-468, 10^–5 M
Text: (§2) In the next step, all synthesized compounds were electronically submitted and accepted for testing to the National Cancer Institute (NCI) platform, for the single dose (10^−5 M) screening against a panel of 60 human tumor cell lines, representing leukemia, melanoma, and cancers of the lung, colon, central nervous system, ovary, kidney, prostate, and breast. The results are summarized in Table 2, with the best values highlighted in red (Figures S1–S14).

[16] = system: HOP-62; assay: NCI-60 single-dose screen; assay type: cell-based, human; conditions: HOP-62, 10^–5 M
Text: as §2

[17] = system: UO-31; assay: NCI-60 single-dose screen; assay type: cell-based, human; conditions: UO-31, 10^–5 M
Text: as §2

[18] = system: U251; assay: NCI-60 single-dose screen; assay type: cell-based, human; conditions: U251, 10^–5 M
Text: as §2

[19] = system: SF-295; assay: NCI-60 single-dose screen; assay type: cell-based, human; conditions: SF-295, 10^–5 M
Text: as §2

[20] = system: BT-549; assay: NCI-60 single-dose screen; assay type: cell-based, human; conditions: BT-549, 10^–5 M
Text: as §2

[21] = system: NCI-H226; assay: NCI-60 single-dose screen; assay type: cell-based, human; conditions: Homo sapiens; NCI-H226, 10^–5 M; read-out: GI (%)
Text: as §2

[22] = system: EKVX; assay: NCI-60 single-dose screen; assay type: cell-based, human; conditions: Homo sapiens, 10^–5 M, read-out: GI (%)
Text: as §2

Row | Structure (SMILES) | inhibition at 10 µM [1] | inhibition at 10 µM [2] | inhibition at 10 µM [3] | inhibition at 10 µM [4] | inhibition at 10 µM [5] | inhibition at 10 µM [6] | inhibition at 10 µM [7] | inhibition at 10 µM [8] | inhibition at 10 µM [9] | inhibition at 10 µM [10] | inhibition at 10 µM [11] | inhibition at 10 µM [12] | inhibition at 10 µM [13] | antibacterial activity (in words) [14] | GI (%) [15] | GI (%) [16] | GI (%) [17] | GI (%) [18] | GI (%) [19] | GI (%) [20] | other results
1 | O=C1C(Nc2ccc(I)cc2)=CC(c2ccc3c(c2)OCO3)N1c1ccc(I)cc1 (stereo not drawn) [3n] | 0% | 4% | 22% | 0% | 5% | 6% | 27% | 9% | 6% | 0% | 16% | 3% | 3% | highest antibacterial activity | 83% | 0% | 6% | 0% | 9% | 3% | inhibition at 10 µM [21]: 3%; inhibition at 10 µM [22]: 12%
2 | O=C1C(Nc2ccc(I)cc2)=CC(c2ccc(O)cc2)N1c1ccc(I)cc1 (stereo not drawn) [3g] | 33% | 66% | 80% | 31% | 27% | 53% | 100% | 56% | 78% | 43% | 75% | 20% | 69% | highest antibacterial activity | 96% | 5% | 54% | 29% | 48% | 54% | inhibition at 10 µM [21]: 47%; inhibition at 10 µM [22]: 64%
3 | O=C1C(Nc2ccc(I)cc2)=CC(c2ccco2)N1c1ccc(I)cc1 (stereo not drawn) [3m] | 61% | 29% | 49% | 11% | 8% | 10% | 76% | 16% | 14% | 7% | 30% | 19% | 0% | highest antibacterial activity | 100 ^q1% | 50% | 17% | 0% | 63% | 17% | inhibition at 10 µM [21]: 22%; inhibition at 10 µM [22]: 39%
